Experimental data as given in patent publication US20240139154A1, “Methods of Reducing Risk of Prostate Cancer Progression” (Astellas Pharma Inc., priority 2021, published 2024).
Read-outs that look alike come from different tables or passages of the source.

Assays:
[1] = tested on: low risk or intermediate risk prostate cancer; settings: for Hazard Ratio (95% CI), time to prostate cancer progression: enzalutamide/AS, Cox regression, HR<1 favors enzalutamide
[2] = tested on: serum PSA; assay: ENACT study: time to PSA progression and secondary rise in serum PSA; type: in vivo, human; settings: for Hazard Ratio (95% CI), time to PSA progression: Cox regression
Protocol: (§1) Secondary endpoints were (1) Incidence of negative biopsies for cancer at 1 year and 2 years; (2) percentage of cancer-positive cores at 1 year and 2 years; (3) time to PSA progression; and (4) incidence of a secondary rise in serum PSA at 1 year and 2 years. “PSA progression” is defined as a ≥25% increase in serum PSA from baseline, a ≥25% increase above nadir, or an absolute increase of ≥2 ng/mL.
(§2) Secondary endpoint of incidence of negative biopsy for cancer was summarized using frequencies and percentages at one and two years by treatment groups. […] Analysis of time to PSA progression was performed using the same method used to analyze the primary endpoint. P-values were adjusted using the Bonferroni-Holm method to control type I error at 0.05 for selected secondary endpoints.

[3] = ENACT study: adverse events (safety set); type: in vivo, human; settings: During 1-year continued follow-up period, n = 112
[4] = ENACT study: adverse events (safety set); type: in vivo, human
Description: The full analysis set (FAS) was the patients who were enrolled in the study and randomized to one or the other of the study arms. The safety set (SAF) was redefined in the Statistical Analysis Plan (SAP) to include only subjects who took the study drug. The FAS was 227 patients (113 in the active surveillance arm, 114 in the enzalutamide arm). The SAF had 112 subjects in the enzalutamide arm.
As expected, the incidence of Drug-Related Adverse Events (AEs) were reported in 92.0% (103/112) of the enzalutamide patients during the treatment period plus 30 days. Of the patients on active surveillance, 54.9% (62/113) experienced an adverse event from randomization until date completed 12 months on study plus 30 days. The most common Drug-Related AE seen in the enzalutamide group was fatigue (52.7%). Adverse events which occurred in ≥3.5% of enzalutamide patients were fatigue (55.4%), gynecomastia (36.6%), nipple pain (30.4%), breast tenderness (25.9%), and erectile dysfunction (17.9%). The only AE that occurred in ≥3.5% of the patients on active surveillance was hypertension (7.1%). […] Observed AE data were consistent with the known safety profile of enzalutamide.

[5] = tested on: low risk or intermediate risk prostate cancer; assay: ENACT study: biopsy outcomes (negative biopsies, percentage of cancer-positive cores) at 1 and 2 years; type: in vivo, human
Description: This was followed by a one year follow up period, and a further continued follow-up period of at least one-year, until the last patient completed the 24-month visit.
as §1, §2

Q: With `CNC(=O)c1ccc(N2C(=S)N(c3ccc(C#N)c(C(F)(F)F)c3)C(=O)C2(C)C)cc1F` [enzalutamide, Enzalutamide] as the compound, how does the “Median Progression Free Survival / median time to pathological or therapeutic prostate cancer progression” value ([1]; FAS, Kaplan-Meier, NR = not reached) read?
A: not reached

Q: And the “No. Censored (progression free survival), %” value ([1]; FAS, N = 114)?
A: 71.9%

Q: And the “No. of Events (prostate cancer progression), %” value ([1]; FAS, N = 114, 160 mg/day)?
A: 28.1%

Q: What about the “reduction in risk of prostate cancer progression” value ([1]; compared to patients on active surveillance) of the same compound?
A: 46%

Q: What about the “Hazard Ratio (95% CI), time to prostate cancer progression” value ([1]; FAS) of the same compound?
A: 0.542 (0.330, 0.892)

Q: What about the “Hazard Ratio (95% CI), time to prostate cancer progression” value ([1]; FAS, listed as Enzalutamide) of the same compound?
A: 0.54 (0.33, 0.89)

Q: What about the “Incidence of a secondary rise in serum PSA at 1 year, PSA response, %” value ([2]; 1 year, n = 114) of the same compound?
A: (24.6) %

Q: What about the “Incidence of a secondary rise in serum PSA at 2 years, PSA response, %” value ([2]; 2 years, n = 100) of the same compound?
A: (92.0) %

Q: And the “Median Time to PSA Progression (95% CI)” value ([2]; FAS, Kaplan-Meier)?
A: 14.82

Q: And the “No. Censored (time to PSA progression), %” value ([2]; FAS, N = 114)?
A: 15.8%

Q: And the “No. of Events (PSA progression), %” value ([2]; FAS, N = 114)?
A: 84.2%

Q: And the “OR (95% CI), secondary rise in serum PSA at 1 year” value ([2]; enzalutamide vs AS, 1 year)?
A: 0.1 (0.08, 0.26)

Q: What about the “OR (95% CI), secondary rise in serum PSA at 2 years” value ([2]; enzalutamide vs AS, 2 years) of the same compound?
A: 1.1 (0.37, 3.53)

Q: What about the “Hazard Ratio (95% CI), time to PSA progression” value ([2]; enzalutamide vs AS, FAS) of the same compound?
A: 0.714 (0.525, 0.972)

Q: What about the “Hazard Ratio (95% CI), time to PSA progression” value ([2]; enzalutamide vs AS, FAS, listed as Enzalutamide) of the same compound?
A: 0.71 (0.53, 0.97)

Q: What about the “Time to PSA progression, Median (95% CI)” value ([2]; n = 114) of the same compound?
A: 14.8 months

Q: And the “PSA rebound following cessation of treatment” value ([2]; observed at month 15 onwards)?
A: PSA rebound was demonstrated

Q: What about the “delay of PSA progression” value ([2]; versus AS) of the same compound?
A: 6 months

Q: What about the “AEs leading to death, %” value [3] of the same compound?
A: 1.8%

Q: What about the “AEs leading to death, %” value ([4]; During 1-year treatment period, n = 112) of the same compound?
A: 0.9%

Q: What about the “most common Drug-Related AE: fatigue” value ([4]; human, in vivo) of the same compound?
A: 52.7%

Q: What about the “Drug-related AEs leading to discontinuation of study drug, %” value ([4]; human, in vivo, 1 year) of the same compound?
A: 7.1%

Q: What about the “Drug-related AEs ≥ grade 3, %” value ([4]; human, in vivo, 1 year) of the same compound?
A: 5.4%

Q: And the “Drug-related AEs, %” value ([4]; human, in vivo, 1 year)?
A: 88.4%

Q: And the “Drug-related SAEs, %” value ([4]; human, in vivo, 1 year)?
A: 2.7%

Q: And the “TEAEs ≥ grade 3, %” value ([4]; human, in vivo, 1 year)?
A: 9.8%

Q: What about the “Adverse Event: Alopecia, %” value ([4]; human, in vivo, 12 months) of the same compound?
A: (9.8%)

Q: And the “Adverse Event: Hypertension, %” value ([4]; human, in vivo, 12 months)?
A: (7.1%)

Q: What about the “Adverse Event: Libido Decreased, %” value ([4]; human, in vivo, 12 months) of the same compound?
A: (8.0%)

Q: And the “tolerability of enzalutamide monotherapy” value ([4]; in vivo)?
A: well-tolerated

Q: And the “Percentage of cancer-positive cores at 1 year, LS mean change from baseline ± SE” value ([5]; 1 year, n = 90)?
A: −12.97 ± 1.99%

Q: And the “Biopsy result at 1 year: Positive, %” value ([5]; 1 year, n = 114)?
A: (46.5) %

Q: What about the “Biopsy result at 1 year: Unknown, %” value ([5]; 1 year, n = 114) of the same compound?
A: (18.4) %

Q: What about the “Incidence of negative biopsy at 1 year: Negative, %” value ([5]; 1 year, n = 114) of the same compound?
A: 35.1%

Q: And the “Percentage of cancer-positive cores at 2 years, LS mean change from baseline ± SE” value ([5]; 2 years, n = 53)?
A: −6.68 ± 2.37%

Q: What about the “Biopsy result at 2 years: Positive, %” value ([5]; 2 years, n = 100) of the same compound?
A: (47.0) %

Q: And the “Biopsy result at 2 years: Unknown, %” value ([5]; 2 years, n = 100)?
A: (34.0) %

Q: And the “Incidence of negative biopsy at 2 years: Negative, %” value ([5]; 2 years, n = 100)?
A: 19.0%

Q: What about the “reduction in the mean percentage of cancer-positive cores within the enzalutamide arm” value ([5]; between baseline and year two) of the same compound?
A: 6.7%

Q: And the “Percentage of cancer-positive cores at 1 year, Difference in LS means ± SE” value ([5]; enzalutamide vs AS, 1 year)?
A: −10.07 ± 2.40%

Q: What about the “Percentage of cancer-positive cores at 2 years, Difference in LS means ± SE” value ([5]; enzalutamide vs AS, 2 years) of the same compound?
A: −5.15 ± 3.17%

Q: What about the “OR (95% CI), negative biopsy at 1 year” value ([5]; enzalutamide vs AS, exact logistic regression, 1 year) of the same compound?
A: 3.5 (1.76, 6.92)

Q: What about the “OR (95% CI), negative biopsy at 2 years” value ([5]; enzalutamide vs AS, exact logistic regression, 2 years) of the same compound?
A: 1.6 (0.66, 4.00)

Q: And the “OR (95% CI), negative biopsy at 2 years” value ([5]; enzalutamide vs AS, exact logistic regression, 2 years, listed as Enzalutamide)?
A: 1.6 (0.66, 4.00)

Q: And the “likelihood of a negative biopsy at one year compared to the control population” value ([5]; one year)?
A: at least three times more likely
